Assay results published in US6525001B1, “Substituted pyrimidine and pyridine herbicides” (Mid-American Commercialization Corporation, priority 1997, dated 2003).

Tests used:
Experiment in all cases: Test B pre-/postemergence
Format in all cases: in vivo
Parameters in all cases: key: 0 is no effect; 10 is complete control
[1] = test system: bedstraw (Galium aparine)
In short: (§1)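 Compounds in a surfactant-containing, non-phytotoxic solvent blend are applied to freshly planted seed (preemergence) and, concurrently, to seedlings of 2 to 18 cm at 1–4 leaves (postemergence). Plants stay in the greenhouse twelve to sixteen days and are then scored visually from 0 (no effect) to 10 (complete control).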

[2] = test system: blackgrass (Alopecurus myosuroides)
In short: as §1

[3] = test system: broadleaf signalgrass (Brachiaria decumbens)
In short: as §1

[4] = test system: cocklebur (Xanthium strumarium)
In short: as §1

corn (Zea mays) = test system: corn (Zea mays)
In short: as §1

[5] = test system: crabgrass (Digitaria sanguinalis)
In short: as §1

[6] = test system: giant foxtail (Setaria faberii)
In short: as §1

[7] = test system: momingglory (Ipomoea hederacea)
In short: as §1

[8] = test system: pigweed (Amaranthus retroflexus)
In short: as §1

[9] = test system: purple nutsedge (Cyperus rotundus)
In short: as §1

[10] = test system: sugar beet (Beta vulgaris)
In short: as §1

[11] = test system: velvetleaf (Abutilon theophrasti)
In short: as §1

[12] = test system: wheat (Triticum aestivum)
In short: as §1

wild oat (Avena fatua) = test system: wild oat (Avena fatua)
In short: as §1

[13] = Preemergence, Rate 62 g/ha, scale of 0 to 10

Cc1cnc(-n2cnc(C(F)(F)F)n2)nc1C(=O)c1cccc(OC(F)(F)F)c1 [Compound 64]
Plant response rating, Bedstraw [1, 13]: 3
Bedstraw plant response rating ([1]; Rate 62 g/ha, Postemergence): 3
Bedstraw plant response rating ([1]; Rate 125 g/ha, Postemergence): 4
Plant response rating, Bedstraw ([1]; Rate 125 g/ha, Preemergence): 8
Plant response rating, Bedstraw ([1]; Rate 250 g/ha, Postemergence): 7
Plant response rating, Bedstraw ([1]; Rate 250 g/ha, Preemergence): 8
Plant response rating, Bedstraw ([1]; Rate 500 g/ha, Postemergence): 9
Plant response rating, Bedstraw ([1]; Rate 500 g/ha, Preemergence): 9
Plant response rating, Blackgrass [2, 13]: 5
Blackgrass plant response rating ([2]; Rate 62 g/ha, Postemergence): 4
Blackgrass plant response rating ([2]; Rate 125 g/ha, Postemergence): 5
Plant response rating, Blackgrass ([2]; Rate 125 g/ha, Preemergence): 6
Plant response rating, Blackgrass ([2]; Rate 250 g/ha, Postemergence): 7
Plant response rating, Blackgrass ([2]; Rate 250 g/ha, Preemergence): 6
Plant response rating, Blackgrass ([2]; Rate 500 g/ha, Postemergence): 9
Plant response rating, Blackgrass ([2]; Rate 500 g/ha, Preemergence): 9
B. signalgrass plant response rating ([3]; Rate 62 g/ha, Postemergence): 4
B. signalgrass plant response rating ([3]; Rate 62 g/ha, Preemergence): 8
B. signalgrass plant response rating ([3]; Rate 125 g/ha, Postemergence): 5
Plant response rating, B. signalgrass ([3]; Rate 125 g/ha, Preemergence): 9
Plant response rating, B. signalgrass ([3]; Rate 250 g/ha, Postemergence): 6
Plant response rating, B. signalgrass ([3]; Rate 250 g/ha, Preemergence): 10
Plant response rating, B. signalgrass ([3]; Rate 500 g/ha, Postemergence): 8
Plant response rating, B. signalgrass ([3]; Rate 500 g/ha, Preemergence): 10
Plant response rating, Cocklebur [4, 13]: 1
Cocklebur plant response rating ([4]; Rate 62 g/ha, Postemergence): 6
Cocklebur plant response rating ([4]; Rate 125 g/ha, Postemergence): 7
Plant response rating, Cocklebur ([4]; Rate 125 g/ha, Preemergence): 1
Plant response rating, Cocklebur ([4]; Rate 250 g/ha, Postemergence): 7
Plant response rating, Cocklebur ([4]; Rate 500 g/ha, Postemergence): 9
Plant response rating, Cocklebur ([4]; Rate 500 g/ha, Preemergence): 7
Plant response rating, Corn (corn (Zea mays); [13]): 3
Corn plant response rating (corn (Zea mays); Rate 62 g/ha, Postemergence): 1
Corn plant response rating (corn (Zea mays); Rate 125 g/ha, Postemergence): 3
Plant response rating, Corn (corn (Zea mays); Rate 125 g/ha, Preemergence): 3
Plant response rating, Corn (corn (Zea mays); Rate 250 g/ha, Postemergence): 4
Plant response rating, Corn (corn (Zea mays); Rate 250 g/ha, Preemergence): 4
Plant response rating, Corn (corn (Zea mays); Rate 500 g/ha, Postemergence): 5
Plant response rating, Corn (corn (Zea mays); Rate 500 g/ha, Preemergence): 4
Plant response rating, Crabgrass [5, 13]: 9
Crabgrass plant response rating ([5]; Rate 62 g/ha, Postemergence): 4
Crabgrass plant response rating ([5]; Rate 125 g/ha, Postemergence): 5
Plant response rating, Crabgrass ([5]; Rate 125 g/ha, Preemergence): 10
Plant response rating, Crabgrass ([5]; Rate 250 g/ha, Postemergence): 9
Plant response rating, Crabgrass ([5]; Rate 250 g/ha, Preemergence): 10
Plant response rating, Crabgrass ([5]; Rate 500 g/ha, Postemergence): 9
Plant response rating, Crabgrass ([5]; Rate 500 g/ha, Preemergence): 10
Plant response rating, Giant foxtail [6, 13]: 1
Giant foxtail plant response rating ([6]; Rate 62 g/ha, Postemergence): 1
Giant foxtail plant response rating ([6]; Rate 125 g/ha, Postemergence): 3
Plant response rating, Giant foxtail ([6]; Rate 125 g/ha, Preemergence): 2
Plant response rating, Giant foxtail ([6]; Rate 250 g/ha, Postemergence): 4
Plant response rating, Giant foxtail ([6]; Rate 250 g/ha, Preemergence): 5
Plant response rating, Giant foxtail ([6]; Rate 500 g/ha, Postemergence): 5
Plant response rating, Giant foxtail ([6]; Rate 500 g/ha, Preemergence): 6
Plant response rating, Morningglory [7, 13]: 4
Morningglory plant response rating ([7]; Rate 62 g/ha, Postemergence): 2
Morningglory plant response rating ([7]; Rate 125 g/ha, Postemergence): 8
Plant response rating, Morningglory ([7]; Rate 125 g/ha, Preemergence): 10
Plant response rating, Morningglory ([7]; Rate 250 g/ha, Postemergence): 8
Plant response rating, Morningglory ([7]; Rate 250 g/ha, Preemergence): 10
Plant response rating, Morningglory ([7]; Rate 500 g/ha, Postemergence): 8
Plant response rating, Morningglory ([7]; Rate 500 g/ha, Preemergence): 10
Plant response rating, Redroot pigweed [8, 13]: 9
Redroot pigweed plant response rating ([8]; Rate 62 g/ha, Postemergence): 8
Redroot pigweed plant response rating ([8]; Rate 125 g/ha, Postemergence): 9
Plant response rating, Redroot pigweed ([8]; Rate 125 g/ha, Preemergence): 9
Plant response rating, Redroot pigweed ([8]; Rate 250 g/ha, Postemergence): 10
Plant response rating, Redroot pigweed ([8]; Rate 250 g/ha, Preemergence): 10
Plant response rating, Redroot pigweed ([8]; Rate 500 g/ha, Postemergence): 10
Plant response rating, Redroot pigweed ([8]; Rate 500 g/ha, Preemergence): 10
Plant response rating, Nutsedge [9, 13]: 0
Nutsedge plant response rating ([9]; Rate 62 g/ha, Postemergence): 0
Nutsedge plant response rating ([9]; Rate 125 g/ha, Postemergence): 0
Plant response rating, Nutsedge ([9]; Rate 250 g/ha, Postemergence): 0
Plant response rating, Nutsedge ([9]; Rate 500 g/ha, Postemergence): 2
Plant response rating, Nutsedge ([9]; Rate 500 g/ha, Preemergence): 2
Plant response rating, Sugarbeets [10, 13]: 9
Sugarbeets plant response rating ([10]; Rate 62 g/ha, Postemergence): 9
Sugarbeets plant response rating ([10]; Rate 125 g/ha, Postemergence): 10
Plant response rating, Sugarbeets ([10]; Rate 125 g/ha, Preemergence): 10
Plant response rating, Sugarbeets ([10]; Rate 250 g/ha, Postemergence): 10
Plant response rating, Sugarbeets ([10]; Rate 250 g/ha, Preemergence): 10
Plant response rating, Sugarbeets ([10]; Rate 500 g/ha, Postemergence): 10
Plant response rating, Sugarbeets ([10]; Rate 500 g/ha, Preemergence): 10
Plant response rating, Velvetleaf [11, 13]: 4
Velvetleaf plant response rating ([11]; Rate 62 g/ha, Postemergence): 2
Velvetleaf plant response rating ([11]; Rate 125 g/ha, Postemergence): 7
Plant response rating, Velvetleaf ([11]; Rate 125 g/ha, Preemergence): 6
Plant response rating, Velvetleaf ([11]; Rate 250 g/ha, Postemergence): 8
Plant response rating, Velvetleaf ([11]; Rate 250 g/ha, Preemergence): 6
Plant response rating, Velvetleaf ([11]; Rate 500 g/ha, Postemergence): 9
Plant response rating, Velvetleaf ([11]; Rate 500 g/ha, Preemergence): 10
Plant response rating, Wheat [12, 13]: 0
Wheat plant response rating ([12]; Rate 62 g/ha, Postemergence): 2
Wheat plant response rating ([12]; Rate 125 g/ha, Postemergence): 3
Plant response rating, Wheat ([12]; Rate 125 g/ha, Preemergence): 0
Plant response rating, Wheat ([12]; Rate 250 g/ha, Postemergence): 3
Plant response rating, Wheat ([12]; Rate 250 g/ha, Preemergence): 1
Plant response rating, Wheat ([12]; Rate 500 g/ha, Postemergence): 5
Plant response rating, Wheat ([12]; Rate 500 g/ha, Preemergence): 2
Plant response rating, Wild oats (wild oat (Avena fatua); [13]): 3
Wild oats plant response rating (wild oat (Avena fatua); Rate 62 g/ha, Postemergence): 3
Wild oats plant response rating (wild oat (Avena fatua); Rate 125 g/ha, Postemergence): 4
Plant response rating, Wild oats (wild oat (Avena fatua); Rate 125 g/ha, Preemergence): 4
Plant response rating, Wild oats (wild oat (Avena fatua); Rate 250 g/ha, Postemergence): 5
Plant response rating, Wild oats (wild oat (Avena fatua); Rate 250 g/ha, Preemergence): 5
Plant response rating, Wild oats (wild oat (Avena fatua); Rate 500 g/ha, Postemergence): 7
Plant response rating, Wild oats (wild oat (Avena fatua); Rate 500 g/ha, Preemergence): 9
